Reference: ChEMBL document CHEMBL1149412, “Novel human lipoxygenase inhibitors discovered using virtual screening with homology models” (J Med Chem, 2006)

test: Partition coefficient of the compound, log P; format: physicochemical; settings: octanol/water

Row | SMILES | logP
1 | Cc1cccc(C(=N)NOC(=O)c2ccc(C)cc2Cl)c1 | 5.42
2 | Nc1sc2c(c1C(=O)Nc1cccc(Cl)c1)CCCC2 | 4.64
3 | CCc1cc(-c2n[nH]cc2Oc2ccccc2)c(O)cc1O | 3.93
